Results taken from patent publication US10508104B2, “6-hydroxy-5-(phenyl/heteroarylsulfonyl)pyrimidin-4(1H)-one as APJ agonists” (Bristol-Myers Squibb Company, priority 2016, dated 2019).
Like-named read-outs stand apart in the source and are kept apart here.

Target: human APJ receptor (Homo sapiens (Human), UniProt P35414)
Test: Intracellular cAMP accumulation assay (APJ hcAMP, HTRF)
Format: cell-based
Conditions: read-out: Human APJ cAMP EC50 Potency range
Procedure: Intracellular cAMP Accumulation Assay
HEK293 cells stably expressing human APJ receptor were used to assess the activity of compounds. Cultured cells were detached and resuspended in the cAMP Homogeneous Time-Resolved Fluorescence (HTRF) assay buffer (Cisbio cat; #62AM4PEJ). The assay was performed in 384-well assay plates (Perkin-Elmer; cat #6008289) according to assay protocol provided by the manufacturer. Serial dilutions of a compound together with assay buffer containing […] and 2 μM forskolin were added to each well containing 5,000 cells and incubated for 30 minutes at room temperature. Subsequently, cAMP D2 reagent was added in the lysis buffer followed by the EuK antibody (Cisbio; cat #62AM4PEJ) and incubated for 60 min. The fluorescence emission ratio was measured using fluorometer. The intracellular cAMP concentrations (compound-stimulated inhibition of forskolin-mediated cAMP production) were calculated by extrapolation from a standard curve using known cAMP concentrations. The EC50 values were obtained by fitting the data to a sigmoidal concentration-response curve with variable slope.
The EC50 value of each compound is presented at the end of the example description.
The biological activity of the exemplified compounds of this invention determined by the assay described above is shown at the end of each example.

[1] = human APJ, intracellular cAMP accumulation
[2] = HEK293 cells stably expressing human APJ receptor, inhibition of forskolin-mediated cAMP production

human APJ receptor, sequence (P35414 whole entry): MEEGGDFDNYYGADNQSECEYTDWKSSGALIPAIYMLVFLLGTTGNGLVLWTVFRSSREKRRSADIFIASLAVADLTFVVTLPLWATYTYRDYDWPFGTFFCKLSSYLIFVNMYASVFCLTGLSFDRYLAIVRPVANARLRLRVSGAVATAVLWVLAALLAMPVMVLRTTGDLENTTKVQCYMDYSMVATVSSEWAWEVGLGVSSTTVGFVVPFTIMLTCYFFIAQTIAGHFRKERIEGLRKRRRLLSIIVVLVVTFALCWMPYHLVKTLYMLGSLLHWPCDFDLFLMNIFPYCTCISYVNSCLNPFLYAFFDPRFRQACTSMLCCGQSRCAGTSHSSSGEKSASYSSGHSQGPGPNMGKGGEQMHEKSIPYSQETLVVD

| Compound | EC50 [1] [nM] | EC50 (human APJ, cAMP accumulation) [nM] | further results |
| --- | --- | --- | --- |
| 5-(4- bromobenzenesulfonyl)- 2-butyl-3- [cyclopropyl(phenyl) methyl]-6-hydroxy-3,4- dihydropyrimidin-4-one [Example 186] | 10 to 100 | – | – |
| 5-(4- bromobenzenesulfonyl)- 2-butyl-3-[(1S)-1-(3- chlorophenyl)propyl]-6- hydroxy-3,4- dihydropyrimidin-4-one [Example 188] | 10 to 100 | – | – |
| COC[C@@H](c1ccccc1)n1c(C2CCCO2)nc(=O)c(S(=O)(=O)c2ccc(-c3ccnc(F)c3C)cc2)c1O (mixture of isomers) [Example 353, 5-[4-(2-fluoro-3-methylpyridin-4-yl)benzenesulfonyl]-6-hydroxy-1-[(1R)-2-methoxy-1-phenylethyl]-2-(oxolan-2-yl)-1,4-dihydropyrimidin-4-one] | – | 0.01 to 10 | – |
| COC[C@@H](c1ccccc1)n1c(C2CCCO2)nc(=O)c(S(=O)(=O)c2ccc(-c3ccc(F)nc3)cc2)c1O (mixture of isomers) [Example 354, 5-[4-(6-fluoropyridin-3-yl)benzenesulfonyl]-6-hydroxy-1-[(1R)-2-methoxy-1-phenylethyl]-2-(oxolan-2-yl)-1,4-dihydropyrimidin-4-one] | – | 0.01 to 10 | – |
| COC[C@@H](c1ccccc1)n1c(C2CCCO2)nc(=O)c(S(=O)(=O)c2ccc(-c3ccc(F)nc3C)cc2)c1O (mixture of isomers) [Example 355, 5-[4-(6-fluoro-2-methylpyridin-3-yl)benzenesulfonyl]-6-hydroxy-1-[(1R)-2-methoxy-1-phenylethyl]-2-(oxolan-2-yl)-1,4-dihydropyrimidin-4-one] | – | 0.01 to 10 | – |
| COC[C@@H](c1ccccc1)n1c(C2CCCO2)nc(=O)c(S(=O)(=O)c2ccc(-c3ccncc3C)cc2)c1O (single isomer, unassigned) [Example 350] | – | 0.01 to 10 | – |
| COC[C@@H](c1ccccc1)n1c(C2CCCO2)nc(=O)c(S(=O)(=O)c2ccc(-c3ccncc3C)cc2)c1O (single isomer, unassigned) [Example 351] | – | 0.01 to 10 | – |
| COC[C@@H](c1ccccc1)n1c(C2CCCO2)nc(=O)c(S(=O)(=O)c2ccc(-c3ccncc3C)cc2)c1O (single isomer, unassigned) [Example 352] | – | 0.01 to 10 | – |
| COC[C@@H](c1ccccc1)n1c(C2CCCO2)nc(=O)c(S(=O)(=O)c2ccc(-c3ccc(F)nc3C)cc2)c1O (single isomer, unassigned) [Example 356] | – | 0.01 to 10 | – |
| COC[C@@H](c1ccccc1)n1c(C2CCCO2)nc(=O)c(S(=O)(=O)c2ccc(-c3ccc(F)nc3C)cc2)c1O (single isomer, unassigned) [Example 357] | – | 0.01 to 10 | – |
| COC[C@@H](c1ccccc1)n1c(C2CCCO2)nc(=O)c(S(=O)(=O)c2ccc(-c3ccc(F)nc3)cc2)c1O (single isomer, unassigned) [Example 358] | – | 0.01 to 10 | – |
| COC[C@@H](c1ccccc1)n1c(C2CCCO2)nc(=O)c(S(=O)(=O)c2ccc(-c3ccc(F)nc3)cc2)c1O (single isomer, unassigned) [Example 359] | – | 0.01 to 10 | – |
| CCCCc1nc(=O)c(S(=O)(=O)c2ccc(Br)cc2)c(O)n1-c1c(OC)cccc1OC [Example 1, 5-((4-Bromophenyl)sulfonyl)-2-butyl-1-(2,6-dimethoxyphenyl)-6-hydroxypyrimidin-4(1H)-one] | – | – | EC50 [2]: 0.01 to 10 nM |
| CCCCc1nc(=O)c(S(=O)(=O)c2ccccc2)c(O)n1-c1c(OC)cccc1OC [Example 2, 5-(benzenesulfonyl)-2-butyl-1-(2,6-dimethoxyphenyl)-6-hydroxy-1,4-dihydropyrimidin-4-one] | 0.01 to 10 | – | – |
| CCCCc1nc(=O)c(S(=O)(=O)c2ccc(Cl)cc2)c(O)n1-c1c(OC)cccc1OC [Example 3, 2-butyl-5-(4-chlorobenzenesulfonyl)-1-(2,6-dimethoxyphenyl)-6-hydroxy-1,4-dihydropyrimidin-4-one] | 0.01 to 10 | – | – |
| CCCCc1nc(=O)c(S(=O)(=O)c2ccc(F)cc2)c(O)n1-c1c(OC)cccc1OC [Example 4, 2-butyl-1-(2,6-dimethoxyphenyl)-5-(4-fluorobenzenesulfonyl)-6-hydroxy-1,4-dihydropyrimidin-4-one] | 0.01 to 10 | – | – |

| Compound | EC50 [1] [nM] | EC50 (human APJ, cAMP accumulation) [nM] | further results |
| --- | --- | --- | --- |
| CCCCc1nc(=O)c(S(=O)(=O)Cc2ccccc2)c(O)n1-c1c(OC)cccc1OC [Example 5, 2-butyl-1-(2,6-dimethoxyphenyl)-6-hydroxy-5-phenylmethanesulfonyl-1,4-dihydropyrimidin-4-one] | 10 to 100 | – | – |
| CCCCc1nc(=O)c(S(=O)(=O)c2ccc(C(F)(F)F)cn2)c(O)n1-c1c(OC)cccc1OC [Example 6, 2-butyl-1-(2,6-dimethoxyphenyl)-6-hydroxy-5-{[5-(trifluoromethyl)pyridin-2-yl]sulfonyl}-1,4-dihydropyrimidin-4-one] | 0.01 to 10 | – | – |
| CCCCc1nc(=O)c(S(=O)(=O)c2ccc(-c3ccc(F)cc3)cc2)c(O)n1-c1c(OC)cccc1OC [Example 7, 2-Butyl-1-(2,6-dimethoxyphenyl)-5-((4′-fluoro-[1,1′-biphenyl]-4-yl)sulfonyl)-6-hydroxypyrimidin-4(1H)-one] | – | – | EC50 [2]: 0.01 to 10 nM |
| CCCCc1nc(=O)c(S(=O)(=O)c2ccc(-c3ccccc3)cc2)c(O)n1-c1c(OC)cccc1OC [Example 8, 2-butyl-1-(2,6-dimethoxyphenyl)-6-hydroxy-5-(4-phenylbenzenesulfonyl)-1,4-dihydropyrimidin-4-one] | 0.01 to 10 | – | – |
| CCCCc1nc(=O)c(S(=O)(=O)c2ccc(-c3cn(C)nc3C(F)(F)F)cc2)c(O)n1-c1c(OC)cccc1OC [Example 9, 2-butyl-1-(2,6-dimethoxyphenyl)-6-hydroxy-5-{4-[1-methyl-3-(trifluoromethyl)-1H-pyrazol-4-yl]benzenesulfonyl}-1,4-dihydropyrimidin-4-one] | 0.01 to 10 | – | – |
| CCCCc1nc(=O)c(S(=O)(=O)c2ccc(-c3cnn(C(C)C)c3)cc2)c(O)n1-c1c(OC)cccc1OC [Example 10, 2-butyl-1-(2,6-dimethoxyphenyl)-6-hydroxy-5-{4-[1-(propan-2-yl)-1H-pyrazol-4-yl]benzenesulfonyl}-1,4-dihydropyrimidin-4-one] | 0.01 to 10 | – | – |
| COc1cccc(OC)c1-n1c(CCC(C)C)nc(=O)c(S(=O)(=O)c2ccc(-c3ccccc3)cc2)c1O [Example 11, 1-(2,6-dimethoxyphenyl)-6-hydroxy-2-(3-methylbutyl)-5-(4-phenylbenzenesulfonyl)-1,4-dihydropyrimidin-4-one] | 0.01 to 10 | – | – |
| COc1cccc(OC)c1-n1c(CCC(C)C)nc(=O)c(S(=O)(=O)c2ccc(-c3ccc(F)cc3)cc2)c1O [Example 12, 1-(2,6-dimethoxyphenyl)-5-[4-(4-fluorophenyl)benzene-sulfonyl]-6-hydroxy-2-(3-methylbutyl)-1,4-dihydropyrimidin-4-one] | 0.01 to 10 | – | – |
| COc1cccc(OC)c1-n1c(CCC(C)C)nc(=O)c(S(=O)(=O)c2ccc(-c3ccc(Cl)cc3)cc2)c1O [Example 14, 5-[4-(4-chlorophenyl)benzene-sulfonyl]-1-(2,6-dimethoxyphenyl)-6-hydroxy-2-(3-methylbutyl)-1,4-dihydropyrimidin-4-one] | 0.01 to 10 | – | – |
| CCCCc1nc(=O)c(S(=O)(=O)c2ccc(-c3ccc(F)nc3)cc2)c(O)n1-c1c(OC)cccc1OC [Example 15, 2-butyl-1-(2,6-dimethoxyphenyl)-5-[4-(6-fluoropyridin-3-yl)benzenesulfonyl]-6-hydroxy-1,4-dihydropyrimidin-4-one] | 0.01 to 10 | – | – |
| CCCCc1nc(=O)c(S(=O)(=O)c2ccc(-c3ccc(C#N)nc3)cc2)c(O)n1-c1c(OC)cccc1OC [Example 16, 5-(4-{[2-butyl-1-(2,6-dimethoxyphenyl)-6-hydroxy-4-oxo-1,4-dihydropyrimidin-5-yl]sulfonyl)phenyl)pyri-dine-2-carbonitrile] | 0.01 to 10 | – | – |
| COc1cccc(OC)c1-n1c(CCC(C)C)nc(=O)c(S(=O)(=O)c2ccc(-c3ccc(C#N)nc3)cc2)c1O [Example 17, 5-(4-{[1-(2,6-dimethoxyphenyl)-6-hydroxy-2-(3-methylbutyl)-4-oxo-1,4-dihydropyrimidin-5-yl]sulfonyl}phenyl)pyri-dine-2-carbonitrile] | 0.01 to 10 | – | – |
| COc1cccc(OC)c1-n1c(CCC(C)C)nc(=O)c(S(=O)(=O)c2cccc(-c3ccc(F)cc3)c2)c1O [Example 18, 1-(2,6-dimethoxyphenyl)-5-[3-(4-fluorophenyl)benzene-sulfonyl]-6-hydroxy-2-(3-methylbutyl)-1,4-dihydropyrimidin-4-one] | 0.01 to 10 | – | – |
| COc1cccc(OC)c1-n1c(CCC(C)C)nc(=O)c(S(=O)(=O)c2cccc(-c3ccccc3)c2)c1O [Example 19, 1-(2,6-dimethoxyphenyl)-6-hydroxy-2-(3-methylbutyl)-5-(3-phenylbenzenesulfonyl)-1,4-dihydropyrimidin-4-one] | 0.01 to 10 | – | – |
| COc1cccc(OC)c1-n1c(CCC(C)C)nc(=O)c(S(=O)(=O)c2cccc(-c3cn(C)nc3C(F)(F)F)c2)c1O [Example 20, 1-(2,6-dimethoxyphenyl)-6-hydroxy-5-{3-[1-methyl-3-(trifluoromethyl)-1H-pyrazol-4-yl]benzenesulfonyl}-2-(3-methylbutyl)-1,4-dihydropyrimidin-4-one] | 0.01 to 10 | – | – |
| COc1cccc(OC)c1-n1c(CCC(C)C)nc(=O)c(S(=O)(=O)c2ccccc2-c2ccc(F)cc2)c1O [Example 21, 1-(2,6-dimethoxyphenyl)-5-[2-(4-fluorophenyl)benzene-sulfonyl]-6-hydroxy-2-(3-methylbutyl)-1,4-dihydropyrimidin-4-one] | 10 to 100 | – | – |
